Results taken from the supplement of paper PMC10307832.

Columns and labels:
Assay in all cases: relative viability (nuclei count vs DMSO), 5 days (fraction); higher = more cells survive
[1] = compound: CC1=CC(=CC=C1)NC2=NC(=CS2)C3=CC=NC=C3 + CC1(C)CCC(c2ccc(Cl)cc2)=C(CN2CCN(c3ccc(C(=O)NS(=O)(=O)c4ccc(N[C@H](CCN5CCOCC5)CSc5ccccc5)c(S(=O)(=O)C(F)(F)F)c4)cc3)CC2)C1 [Navitoclax] (partner 0.5 µM)
Method in brief: (§1)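 Lung cancer cell lines were seeded in 1536-well plates and dosed by pin tool the next day, with either a single drug or a fixed anchor-drug dose combined with five library-drug doses (not always all listed) spaced in √10 steps. Five days later, one step fixed the cells and stained their nuclei (final 0.05% Triton X-100, 1% formaldehyde, 1 ug/ml Hoechst), and nuclei were counted on 4× images. Relative viability is the nuclei count in treated wells divided by the count in vehicle wells, and each value is the median of duplicate plates.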

Masitinib + Phenformin = compound: Cc1ccc(NC(=O)c2ccc(CN3CCN(C)CC3)cc2)cc1Nc1nc(-c2cccnc2)cs1 [Masitinib] + N=C(N)NC(=N)NCCc1ccccc1 [Phenformin] (partner 250 µM)
Method in brief: as §1

[2] = compound: CC1=CC(=CC=C1)NC2=NC(=CS2)C3=CC=NC=C3
Method in brief: (§2)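 After an overnight hold at 37 °C, lung cancer cell lines in 1536-well plates were pinned with five library-drug doses (not always all listed), each √10 from the next, on vehicle-anchored plates. The cells stayed 5 days without fresh medium, then a one-step fix, permeabilisation and Hoechst stain preceded 4× imaging and MetaXpress nuclear counts. A plate passed only with control CV under 25% and at least one doubling. Viability is the median, over plates, of treated-well nuclei relative to vehicle-well nuclei.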

Masitinib = compound: Cc1ccc(NC(=O)c2ccc(CN3CCN(C)CC3)cc2)cc1Nc1nc(-c2cccnc2)cs1 [Masitinib]
Method in brief: as §2

Cell Line | relative viability ([1]; first compound 0.08 µM) | relative viability ([1]; first compound 0.253 µM) | relative viability ([1]; first compound 0.8 µM) | relative viability ([1]; first compound 2.53 µM) | relative viability ([1]; first compound 8 µM) | relative viability (Masitinib + Phenformin; first compound 0.01 µM) | relative viability (Masitinib + Phenformin; first compound 0.03162 µM) | relative viability (Masitinib + Phenformin; first compound 0.1 µM) | relative viability (Masitinib + Phenformin; first compound 0.3162 µM) | relative viability (Masitinib + Phenformin; first compound 1 µM) | relative viability ([2]; 0.08 µM) | relative viability ([2]; 0.253 µM) | relative viability ([2]; 0.8 µM) | relative viability ([2]; 2.53 µM) | relative viability ([2]; 8 µM) | relative viability (Masitinib; 0.01 µM) | relative viability (Masitinib; 0.03162 µM) | relative viability (Masitinib; 0.1 µM) | relative viability (Masitinib; 0.3162 µM) | relative viability (Masitinib; 1 µM)
NCI-H2023 | 0.958 | 0.961 | 0.945 | 0.916 | 0.715 | 0.409 | 0.371 | 0.397 | 0.429 | 0.317 | 0.898 | 0.94 | 0.926 | 0.876 | 0.633 | 0.952 | 1.01 | 0.984 | 0.922 | 0.901
NCI-H3122 | 1.02 | 1.04 | 1.07 | 1.08 | 1.04 |  | 0.396 |  | 0.315 | 0.312 | 0.983 | 1.05 | 1.04 | 1.06 | 0.972 | 0.854 | 1.03 | 0.959 | 1 | 1.08
NCI-H1792 | 0.513 | 0.469 | 0.537 | 0.515 | 0.657 | 0.216 | 0.258 | 0.233 | 0.363 | 0.191 | 0.746 | 0.698 | 0.793 | 0.653 | 0.753 | 0.76 | 0.76 | 1.04 | 0.814 | 0.735
HCC-78 | 0.67 | 0.883 | 0.841 | 0.746 | 0.788 | 0.724 | 0.638 | 0.752 | 0.663 | 0.718 | 0.781 | 0.789 | 0.811 | 0.817 | 0.971 | 0.891 | 0.814 | 0.956 | 0.789 | 0.902
LOU-NH91 | 0.611 | 0.619 | 0.625 | 0.774 | 0.434 | 0.656 | 0.606 | 0.683 | 0.54 | 0.605 | 0.826 | 0.849 | 0.943 | 0.905 | 0.851 | 0.839 | 0.888 | 0.925 | 0.838 | 0.904
NCI-H322M | 1.19 | 1.12 | 1.19 | 1.29 | 1.12 | 0.789 | 0.799 | 0.741 | 0.75 | 0.715 | 0.819 | 0.845 | 0.948 | 1.02 | 0.961 | 0.934 | 0.948 | 0.933 | 0.897 | 0.848
HCC-827 | 0.989 | 0.937 | 0.956 | 1.02 | 0.935 | 0.395 | 0.433 | 0.382 | 0.411 | 0.318 | 0.963 | 0.982 | 0.951 | 1 | 0.7 | 0.868 | 1.03 | 0.888 | 0.959 | 1.01
SW 1573 | 0.916 | 0.965 | 0.924 | 1.1 | 0.841 | 0.351 | 0.344 | 0.341 | 0.354 | 0.383 | 0.989 | 0.945 | 1.08 | 0.962 | 0.909 | 1.08 | 0.945 | 1.1 | 1.02 | 0.974
NCI-H1993 | 0.724 | 0.718 | 0.818 | 0.775 | 0.793 | 0.5 | 0.469 | 0.603 | 0.523 | 0.451 | 0.67 | 0.788 | 0.768 | 0.792 | 0.876 | 0.91 | 0.867 | 0.986 | 0.826 | 0.917
NCI-H1734 | 0.835 | 0.834 | 0.827 | 0.869 | 0.698 | 0.423 | 0.423 | 0.493 | 0.379 | 0.339 | 0.864 | 0.952 | 1.03 | 0.988 | 0.96 | 0.957 | 1.08 | 1.06 | 0.976 | 0.942
NCI-H1666 | 0.82 | 0.818 | 0.535 | 0.578 | 0.417 |  | 0.527 | 0.637 | 0.487 | 0.56 | 0.866 | 0.83 | 0.818 | 0.705 | 0.688 | 0.779 | 0.944 | 0.939 | 0.846 | 0.961
NCI-H460 | 1.13 | 1.08 | 1.08 | 1.13 | 1 | 0.482 | 0.586 | 0.508 | 0.457 | 0.503 | 0.965 | 0.908 | 0.936 | 0.884 | 0.857 | 0.864 | 1.01 | 0.949 | 0.876 | 0.983
LCLC-97TM1 |  |  | 0.641 | 0.385 | 0.418 |  | 0.458 | 0.407 | 0.492 | 0.446 | 0.763 | 0.818 | 0.96 | 0.927 | 0.974 | 0.803 | 1.03 | 0.869 | 1.02 | 0.928
NCI-H838 | 0.954 | 1.09 | 1.04 | 1.09 | 0.924 | 0.45 | 0.498 | 0.521 | 0.508 | 0.569 | 0.823 | 0.891 | 0.894 | 0.835 | 0.846 | 0.867 | 0.855 | 0.955 | 0.907 | 0.929
NCI-H1437 | 1.04 | 1.06 | 1.04 | 1.13 | 0.96 | 0.249 | 0.297 | 0.25 | 0.294 | 0.329 | 0.976 | 0.882 | 0.938 | 0.874 | 0.856 | 0.838 | 0.93 | 1.06 | 0.986 | 0.85
HOP-62 | 0.865 | 1.01 | 1.13 | 1.11 | 1.01 | 0.55 | 0.744 | 0.668 | 0.827 | 0.691 | 0.952 | 0.972 | 1.08 | 0.997 | 0.966 | 0.954 | 0.995 | 0.962 | 1.08 | 1.01
NCI-H2087 | 0.963 | 0.996 | 0.945 | 0.799 | 0.82 | 0.347 | 0.393 | 0.534 | 0.5 | 0.393 | 0.951 | 0.895 | 1.01 | 0.877 | 0.93 | 0.961 | 1.22 | 1.07 | 1.18 | 1.01
